Counter-ions that a name gives are not always drawn.
Legend:
[1] = tested on: human colorectal adenocarcinoma DLD-1 cells; assay: Cytotoxicity against DLD-1 cells (MTS assay); format: cell-based; settings: for IC50: Homo sapiens, DLD-1, read-out: IC50 (50% reduction in cell viability), DLD-1 cells, 24 h, 0–100 µM
Experimental: (§1) Human colorectal adenocarcinoma cells DLD-1 were cultured in RPMI-1640 medium. Culture media was supplemented with 10% fetal bovine serum (FBS) and penicillin—streptomycin solution. Cells were maintained in a sterile environment and kept in an incubator at 5% CO2 and 37 °C to promote growth. DLD-1 cells were sub-cultured every 3–4 days by their rinsing with phosphate buffered saline (PBS), adding trypsin to detach the cells from the tissue culture flask, and transferring 10–20% of the harvested cells to a new flask containing fresh growth media.
DLD-1 cells (1.0 × 10^4/well) were seeded in 96-well plates for 24 h at 37 °C in 5% CO2 incubator. The cells were treated with the compounds 1–9 at concentrations range from 0 to 100 µM for additional 24 h. Subsequently, cells were incubated with 15 µL MTS reagent for 3 h, and the absorbance of each well was measured at 490/630 nm using microplate reader “Power Wave XS” (Bio Tek, Winooski, VT, USA). All the experiments were repeated three times, and the mean absorbance values were calculated. The results are expressed as the percentage of inhibition that produced a reduction in absorbance by compound’s treatment compared to the non-treated cells (control).

mouse spleenocytes = assay: Cytotoxic activity (MTT) against mouse spleenocytes; format: cell-based
Experimental: (§2) The spleenocytes from CD-1 line mice were used. The spleen was isolated from mice and homogenized. The spleenocytes were washed thrice and resuspended with RPMI-1640 medium contained gentamicine 8 μg/mL (Biolot, Saint Petersburg, Russia). The museum tetraploid strain of murine ascites Ehrlich carcinoma cells from the All-Russian cancer center RAMS (Moscow, Russia) was used. The cells of the ascites Ehrlich carcinoma were separated from ascites, which were collected on day 7 after inoculation in mouse CD-1 line. The cells were washed of ascites thrice and then resuspended in liquid media DMEM with L-Glutamine (Biolot, Saint Petersburg, Russia).
(§3) The solutions of tested substances in different concentrations (20 µL) and cell suspension (200 µL) were added in wells of 96-well plate and incubated over night at 37 °C and 5% CO2. After incubation the cells were sedimented by centrifugation, 200 µL of medium from each well were collected and 100 µL of pure medium were added. Then 10 µL of MTT solution […] (Sigma, St. Louis, MO, USA) were added in each well. Plate was incubated 4 h, after that 100 µL SDS-HCl were added to each well and plate was incubated at 37 °C 4–18 h. Optical density was measured at 570 nm and 630–690 nm. The activity of the substances was calculated as the ratio of the dead cells to general cells amount (ED50). Typicoside A1 [28] and cucumarioside A2-2 [11] were used as positive controls.

[2] = as above; format: cell-based; settings: CD-1, mouse
Experimental: as §2, §3

[3] = Cytotoxic activity (MTT) against the ascites form of mouse Ehrlich carcinoma cells; format: cell-based; settings: mouse
Experimental: as §2, §3

mouse erythrocytes = format: cell-based; settings: for Hemolytic action (in words): mouse erythrocytes
Experimental: The erythrocytes were washed thrice with 0.9% NaCl, centrifuged (450 g) on a centrifuge […] (Heraeus, Hanau, Germany) for 5 min followed by re-suspending in phosphate-buffered saline (PBS), pH 7.2-7.4. […] ED50 was calculated using SigmaPlot 3.02 software (Jandel Scientific, San Rafael, CA, USA). […] The erythrocyte suspension in phosphate-buffered saline, pH 7.2-7.4 (PBS) with 20 μL of the solvent without a tested compound was used as negative control.

[4] = tested on: human colorectal adenocarcinoma DLD-1 cells; assay: Radioactive irradiation plus compounds, DLD-1 cell proliferation (MTS); format: cell-based; settings: compounds 2 µM, radiation 4 Gy, 96 h, MTS assay, read-out: Increase of the inhibitory effect from radiation on proliferation
Experimental: Figure 7 The effect of radioactive irradiation and a combination of radioactive irradiation and the compounds 3, 7–9 on DLD-1 cancer cell proliferation. DLD-1 cells (8.0 × 10^3) were treated with radiation 4 Gy and the compounds 3, 7–9 (2 µM) for 96 h. Cell viability was estimated using the MTS assay. Data are represented as the mean ± SD as determined from triplicate experiments. A Student’s t-test was used to evaluate the data with the following significance levels: * p < 0.05, ** p < 0.01.
DLD-1 cells (8 × 10^3) cells were seeded in 96-well plates in […] of RPMI-1640/10%FBS medium at 37 °C in a 5% CO2 incubator for 24 h. Then the cells were treated with 2 µM of 3, 7–9 for additional 24, 48, 72 or 96 h at 37 °C in a 5% CO2 atmosphere. The reaction was terminated by adding MTS reagent to each well as described in the Section 3.5.5.
Irradiation was delivered at room temperature using single doses of X-ray system XPERT 80 (KUB Technologies, Inc, Milford, CT, USA). The doses were from 4 to 8 Gy for colony formation assay. The absorber dose was measured using X-ray radiation clinical dosimeter DRK-1 (Akselbant, Moscow, Russia).
DLD-1 cells (5.0 × 10^5) were plated at 60 mm dishes and incubated for 24 h. After the incubation, the cells were cultured in the presence or absence of 2 μM 3, 7–9 for additional 24 h before irradiation at the dose of 4 Gy. Immediately after irradiation, cells were returned to the incubator for recovery. Three hour later, the cells were harvested and used for soft agar assay or proliferation assay to establish the synergism of radioactive irradiation and investigated compounds effects on colony formation or proliferation of tested cells.

[5] = tested on: human colorectal adenocarcinoma DLD-1 cells; assay: Soft agar assay, colony formation of DLD-1 cells; format: cell-based; settings: 14 days; for Reduction of colonies size: 10 µM; for inhibition at 10 µM: Homo sapiens, DLD-1, 336 h, read-out: Inhibition of spontaneous colony formation (number of colonies)
Experimental: as §1
DLD-1 cells (8.0 × 10^3) were seeded in 6-well plate and treated with the 3, 7–9 (10 µM) in 1 mL of 0.3% Basal Medium Eagle (BME) agar containing 10% FBS, 2 mM L-glutamine, and 25 µg/mL gentamicin. The cultures were maintained at 37 °C in a 5% CO2 incubator for 14 days, and the cell’s colonies were scored using a microscope “Motic AE 20” (Scientific Instrument Company, Campbell, CA, USA) and the Motic Image Plus computer program (Scientific Instrument Company, Campbell, CA, USA).

[6] = tested on: ascites form of mouse Ehrlich carcinoma cells; assay: Cytotoxic activity (MTT) against the ascites form of mouse Ehrlich carcinoma cells; format: cell-based; settings: ascites form of mouse Ehrlich carcinoma cells, MTT, incubated over night
Experimental: as §2, §3

[7] = tested on: human lung carcinoma A549 cells; parameters: method as in PMID 25738799; settings: cited from earlier work
[8] = tested on: Lewis lung carcinoma cell xenograft tumor; parameters: method as in PMID 25738799; settings: C57BL/6 mice bearing a Lewis lung carcinoma cell xenograft tumor; cited from earlier work
[9] = tested on: human lung carcinoma H1299 cells; parameters: method as in PMID 25738799; settings: cited from earlier work

| Structure (SMILES) | IC50 [1] | IC50 [2] | IC50 [3] | Hemolytic action (in words) (mouse erythrocytes) | inhibition at 2 µM [4] | Reduction of colonies size [5] | inhibition at 10 µM [5] | other results |
| --- | --- | --- | --- | --- | --- | --- | --- | --- |
| CC1OC(OC2C(OC3CCC4(C)C5CCC67C(=O)OC(CC6(C)C5=CCC4C3(C)C)C7C3(C)CCC(C(C)(C)O)O3)OCC(OS(=O)(=O)O)C2O)C(O)C(O)C1O [Compound 1, 3β-O-[β-D-quinovopyranosyl-(1→2)-4-O-sodium sulfate-β-D-xylopyranosyl]-9βH,20(S),24(S)-epoxy-25-hydroxylanosta-7-ene-18(16)-lactone] | > 100 µM | > 100 µM | > 100 µM | inactive |  |  |  | Cytotoxic effect against DLD-1 cells (in words) ([1]; 0–100 µM, 24 h): did not possessed cytotoxic effect; Cytotoxic action against spleenocytes (in words) (mouse spleenocytes; up to the ultimate investigated concentration of 100 μM): inactive |
| C=C(C)CCCC(C)(O)C1C2CC3(C)C4=CCC5C(C)(C)C(OC6OCC(OS(=O)(=O)O)C(O)C6OC6OC(C)C(O)C(O)C6O)CCC5(C)C4CCC13C(=O)O2 [Compound 3, 3β-O-[β-D-quinovopyranosyl-(1→2)-4-O-sodium sulfate-β-D-xylopyranosyl]-9βH,20(S)-hydroxylanosta-7,25-diene-18(16)-lactone] | 30.3 µM | 19.2 ± 0.03 µM | 18.95 ± 0.03 µM |  | > 30% | 49% | 22% |  |
| C=C(C)C(O)CCC(C)(O)C1C2CC3(C)C4=CCC5C(C)(C)C(OC6OCC(OS(=O)(=O)O)C(O)C6OC6OC(C)C(OC7OCC(OC8OC(COS(=O)(=O)O)C(O)C(OC)C8O)C(O)C7O)C(O)C6O)CCC5(C)C4CCC13C(=O)O2 [Compound 8, 3β-O-[6-O-sodium sulfate-3-O-methyl-β-D-glucopyranosyl-(1→3)-β-D-xylopyranosyl-(1→4)-β-D-quinovopyranosyl-(1→2)-4-O-sodium sulfate-β-D-xylopyranosyl]-9βH,20(S),24(S)-dihydroxylanosta-7,25-diene-18(16)-lactone] | 37.1 µM | 17.3 ± 0.43 µM | 37.5 µM | significant effects | > 30% | less than 20% | < 20% |  |
| COC1C(O)C(COS(=O)(=O)O)OC(OC2COC(OC3C(C)OC(OC4C(OC5CCC6(C)C7CCC89C(=O)OC(CC8(C)C7=CCC6C5(C)C)C9C(C)(O)CCC=C(C)C)OCC(OS(=O)(=O)O)C4O)C(O)C3O)C(O)C2O)C1O [Compound 9, 3β-O-[6-O-sodium sulfate-3-O-methyl-β-D-glucopyranosyl-(1→3)-β-D-xylopyranosyl-(1→4)-β-D-quinovopyranosyl-(1→2)-4-O-sodium sulfate-β-D-xylopyranosyl]-9βH,20(S)-hydroxylanosta-7,24-diene-18(16)-lactone] | 33.9 µM | 12.2 ± 0.33 µM | 35.06 ± 0.18 µM |  | 45% | less than 20% | < 20% |  |
| C=C(C)CCCC1(C)OC(=O)C23CCC4C(=CCC5C(C)(C)C(OC6OCC(OS(=O)(=O)[O-])C(O)C6OC6OC(C)C(OC7OC(CO)C(O)C(OC8OC(CO)C(O)C(OC)C8O)C7O)C(O)C6OC6OCC(O)C(O)C6O)CCC45C)C2(C)CC(=O)C13.[Na+] (stereo not shown) [Cucumarioside A2-2, reference compound] |  |  |  |  |  |  |  | IC50 (mouse spleenocytes; CD-1 mouse spleenocytes, MTT, incubated over night): 1.21 ± 0.02 µM; IC50 [6]: 1.39 ± 0.015 µM; Hemolytic Activity, ED50 (mouse erythrocytes; CD-1 mouse erythrocytes, 1 h at 37 °C, dose causing 50% of hemolysis): 0.82 ± 0.02 μM/mL |
| CC(C)=CCC[C@](C)(O)[C@H]1CC[C@]2(C)[C@@H]1[C@H](O)C[C@@H]1[C@@]3(C)CC[C@H](O[C@@H]4O[C@H](CO)[C@@H](O)[C@H](O)[C@H]4O[C@@H]4O[C@H](CO)[C@@H](O)[C@H](O)[C@H]4O)C(C)(C)[C@@H]3CC[C@]12C [ginsenoside Rg3] |  |  |  |  |  |  |  | Sensitization to γ-radiation (in words) [7]: sensitized; Efficacy of radiation therapy (in words) [8]: significantly enhanced the efficacy of radiation therapy; Sensitization to γ-radiation (in words) [9]: sensitized |

— publication PMC5577610, “Nine New Triterpene Glycosides, Magnumosides A1–A4, B1, B2, C1, C2 and C4, from the Vietnamese Sea Cucumber Neothyonidium (=Massinium) magnum: Structures and Activities against Tumor Cells Independently and in Synergy with Radioactive Irradiation” (Marine Drugs, 2017)
